Experimental data as given in ChEMBL document CHEMBL1153593, “Recent developments in the design and synthesis of hybrid molecules based on aminoquinoline ring and their antiplasmodial evaluation” (Eur J Med Chem, 2009).
Values after ≈ are worked out from the molar mass of the structure shown.

What was measured:
[1] = system: Plasmodium yoelii; assay: Antimalarial activity as reduced parasitaemia at day 4 against Plasmodium yoelii N67 infected Swiss mice (Mus musculus) compared to chloroquine; format: functional, N-67; design: concentration or dose not given beside the values
[2] = system: Plasmodium yoelii; assay: Antimalarial activity as mean survival time against Plasmodium yoelii N67 infected Swiss mice (Mus musculus); format: functional, N-67
[3] = system: Plasmodium falciparum; assay: Antimalarial activity against Plasmodium falciparum NF54; settings: NF-54
[4] = system: Plasmodium falciparum; assay: Antimalarial activity against chloroquine-resistant Plasmodium falciparum W2; format: functional, organism-based
[5] = biological target: Plasmepsin II (Plasmodium falciparum, UniProt P46925); assay: Inhibition of Plasmodium falciparum plasmepsin-2
[6] = system: Plasmodium falciparum; assay: microbe, parasite or virus in culture; settings: D10
Description: Antimalarial activity against chloroquine-sensitive Plasmodium falciparum D10

[7] = system: Plasmodium falciparum; assay: Antimalarial activity against Plasmodium falciparum FcB1R; settings: read-out: ED50 (the source's name)
[8] = system: Plasmodium berghei; assay: Gametocytocidal activity as infected mosquitoes against Plasmodium berghei at 10 uM/kg; format: functional
[9] = system: Plasmodium berghei; assay: Gametocytocidal activity as oocysts per mosquito against Plasmodium berghei; format: functional
[10] = Stability assessed as hydrolysis to metabolite in presence of 80% human plasma; format: ADME, cell-free
[11] = system: Plasmodium falciparum; assay: Antimalarial activity against Plasmodium falciparum 3D7; format: functional, organism-based
[12] = system: Plasmodium falciparum; assay: Antimalarial activity against chloroquine-resistant Plasmodium falciparum Dd2; format: functional, organism-based

Plasmepsin II, sequence (P46925 whole entry): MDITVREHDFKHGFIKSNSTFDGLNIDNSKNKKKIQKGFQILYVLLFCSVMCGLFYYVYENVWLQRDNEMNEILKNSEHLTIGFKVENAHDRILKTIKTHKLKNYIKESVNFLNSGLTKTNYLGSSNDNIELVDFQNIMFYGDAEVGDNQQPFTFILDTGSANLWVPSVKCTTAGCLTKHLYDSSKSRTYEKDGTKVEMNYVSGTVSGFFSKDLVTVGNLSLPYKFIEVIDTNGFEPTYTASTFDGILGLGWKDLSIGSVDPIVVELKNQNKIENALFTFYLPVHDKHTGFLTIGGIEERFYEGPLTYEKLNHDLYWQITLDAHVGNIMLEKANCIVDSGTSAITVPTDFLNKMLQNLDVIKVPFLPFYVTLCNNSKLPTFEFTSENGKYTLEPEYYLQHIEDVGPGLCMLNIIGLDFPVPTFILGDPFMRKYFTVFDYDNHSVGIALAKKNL

With `O=C1c2ccccc2SC(c2c(Cl)cccc2Cl)N1CCCNc1ccnc2cc(Cl)ccc12` (configuration not stated) the Activity [1] was 23.5%, the Survival [2] was 13.8 days and the IC50 [3] was 14 nM. For the same molecule, the MIC [3] was 0.28 µM (≈ 0.148 µg/mL).

`O=C1CCSC(c2ccc(Cl)cc2)N1CCNc1ccnc2cc(Cl)ccc12` (configuration not stated) showed an Activity [1] of 81%, a Survival [2] of 15.2 days and an IC50 [3] of 13 nM. For the same molecule, the MIC [3] was 0.26 µM (≈ 0.112 µg/mL).

`O=C1CSC(c2c(Cl)cccc2Cl)N1CCNc1ccnc2cc(Cl)ccc12` (configuration not stated) showed an Activity [1] of 76.08%, a Survival [2] of 14.6 days and an IC50 [3] of 39 nM. It also gave an MIC [3] of 0.55 µM (≈ 0.249 µg/mL).

Molecule `O=C1c2ccccc2SC(c2ccc(Cl)cc2)N1CCCNc1ccnc2cc(Cl)ccc12` (configuration not stated) has an Activity [1] of 40.08%, a Survival [2] of 10.6 days and an IC50 [3] of 138 nM. It also gave an MIC [3] of 0.27 µM (≈ 0.134 µg/mL).

With `CCCCNC(=O)C[C@H](O)[C@H](CC(C)C)NC(=O)[C@@H](NC(=O)Cc1ccc2cc(C(=O)OCCCC(=O)N[C@H](C(=O)N[C@H](CCCCN)C(=O)NCCCC(C)Nc3cc(OC)cc4cccnc34)C(C)C)ccc2c1)[C@H](C)CC` (some centres not stated) the IC50 [4] was 1000 nM, the IC50 [5] was 9600 nM and the IC50 [6] was 3300 nM.

`CCCCNC(=O)C[C@H](O)[C@H](CC(C)C)NC(=O)[C@@H](NC(=O)Cc1ccc(CC(=O)N[C@H](C(=O)N[C@H](CCCCN)C(=O)NCCCC(C)Nc2cc(OC)cc3cccnc23)C(C)C)cc1)[C@H](C)CC` (some centres not stated) showed an IC50 [4] of 4200 nM, an IC50 [5] of 135000 nM and an IC50 [6] of 5500 nM.

Work on `O=C(CN1CCCCC1)Nc1cc(COC(=O)CCC2=CC(=O)c3ccccc3C2=O)cc(Nc2ccnc3ccc(Cl)cc23)c1` yielded an EC50 [7] of 23 nM.

For `COc1cc(NC(C)CCCN2C(=O)[C@@H](Cc3ccccc3)NC23CCCCCC3)c2ncccc2c1` (some centres not stated), the Activity [8] was 90%, the Activity [9] was 78.9 and the Stability [10] was “Stable”.

Molecule `Clc1ccc2c(NCCCN(CCc3ccccc3)Cc3ncc[nH]3)ccnc2c1` has an IC50 [11] of 50 nM, an IC50 [4] of 130 nM and an IC50 [12] of 150 nM.

With `CCCCN(CCCNc1ccnc2cc(Cl)ccc12)Cc1ccoc1` the IC50 [11] was 50 nM, the IC50 [4] was 70 nM and the IC50 [12] was 45 nM.

With `COc1cc(NC(C)CCCN2C(=O)[C@@H](Cc3ccccc3)NC23CCCCC3)c2ncccc2c1` (some centres not stated) the Activity [8] was 83%, the Activity [9] was 71 and the Stability [10] was “Stable”.

Work on `O=C(CN1CCCCC1)Nc1cc(COC(=O)CCCCC2=CC(=O)c3ccccc3C2=O)cc(Nc2ccnc3ccc(Cl)cc23)c1` yielded an EC50 [7] of 23 nM.

Work on `CCCCN(CCCNc1ccnc2cc(Cl)ccc12)Cc1ccsc1` yielded an IC50 [11] of 50 nM, an IC50 [4] of 50 nM and an IC50 [12] of 45 nM.

`O=C(CN1CCCCC1)Nc1cc(COC(=O)CCCCCC2=CC(=O)c3cccc(O)c3C2=O)cc(Nc2ccnc3ccc(Cl)cc23)c1` gave an EC50 [7] of 23 nM.

Work on `O=C(CN1CCCCC1)Nc1cc(COC(=O)CCCCC2=CC(=O)c3cccc(O)c3C2=O)cc(Nc2ccnc3ccc(Cl)cc23)c1` yielded an EC50 [7] of 23 nM.

In the case of `COc1cc(NC(C)CCCN2C(=O)[C@@H](CC(C)C)NC2(C)C)c2ncccc2c1` (some centres not stated), the Activity [8] is reported as 30%, the Activity [9] is reported as 13.7 and the Stability [10] is reported as “Stable”.

`CCCCN(CCCNc1ccnc2cc(Cl)ccc12)Cc1cc(Br)ccc1O` gave an IC50 [11] of 45 nM, an IC50 [4] of 45 nM and an IC50 [12] of 45 nM.

In the case of `CCCCNC(=O)C[C@H](O)[C@H](CC(C)C)NC(=O)[C@@H](NC(=O)c1ccc(Oc2ccc(C(=O)N[C@H](C(=O)N[C@H](CCCCN)C(=O)NCCCC(C)Nc3cc(OC)cc4cccnc34)C(C)C)cc2)cc1)[C@H](C)CC` (some centres not stated), the IC50 [4] is reported as 700 nM, the IC50 [5] is reported as 590 nM and the IC50 [6] is reported as 400 nM.

For `COc1cc(NC(C)CCCN2C(=O)[C@@H](Cc3ccccc3)NC2(C)C)c2ncccc2c1` (some centres not stated), the Activity [8] was 76%, the Activity [9] was 61.2 and the Stability [10] was “Stable”.

`CCCCNC(=O)C[C@H](O)[C@H](CC(C)C)NC(=O)[C@@H](NC(=O)Cc1ccc2cc(CC(=O)N[C@H](C(=O)N[C@H](CCCCN)C(=O)NCCCC(C)Nc3cc(OC)cc4cccnc34)C(C)C)ccc2c1)[C@H](C)CC` (some centres not stated) showed an IC50 [4] of 4700 nM, an IC50 [5] of 1510 nM and an IC50 [6] of 6200 nM.

For `COc1cc(NC(C)CCCN2C(=O)[C@@H](C(C)C)NC2(C)C)c2ncccc2c1` (some centres not stated), the Activity [8] was 25%, the Activity [9] was 5 and the Stability [10] was “Stable”.

For `COc1cc(NC(C)CCCN2C(=O)[C@@H](C(C)C)NC23CCCCC3)c2ncccc2c1` (some centres not stated), the Activity [8] was 85%, the Activity [9] was 61.1 and the Stability [10] was “Stable”.
